Experimental data from US9057090B2, “Method of identifying an agent for inhibiting odor of pyrazine derivatives” (Kao Corporation, priority 2012, dated 2015).

molecular target: T1, olfactory receptor OR5K1 (Homo sapiens, UniProt Q8NHB7); assay: Luciferase reporter gene assay: response of olfactory receptor to pyrazine derivatives; assay type: cell-based; settings: 0, 3, 10, 30, 100, 300 and 1000 μM; HEK293 cells expressing OR5K1 with RTP1S variant; FIG. 2
T1 construct: expressed in transfected cells; host or cells: HEK293
T1 sequence (Q8NHB7 1-308): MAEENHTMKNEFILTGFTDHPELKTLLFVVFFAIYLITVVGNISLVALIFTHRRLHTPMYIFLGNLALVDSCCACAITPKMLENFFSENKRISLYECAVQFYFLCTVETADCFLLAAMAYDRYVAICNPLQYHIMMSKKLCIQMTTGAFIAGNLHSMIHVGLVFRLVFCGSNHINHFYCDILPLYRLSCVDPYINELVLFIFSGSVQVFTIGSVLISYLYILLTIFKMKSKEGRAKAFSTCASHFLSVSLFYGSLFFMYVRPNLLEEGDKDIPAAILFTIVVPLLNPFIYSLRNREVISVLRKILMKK
Description: HEK293 cells expressing 373 types of human olfactory receptors were produced. A reaction solution having a composition shown in Table 1 was prepared and left to stand in a clean bench for 15 min and then was dispensed in each well of a 96-well plate (Becton, Dickinson and Company). Subsequently, HEK293 cells (100 μL, 3×10^5 cells/cm^2) were seeded in each well and cultured in an incubator at 37° C. and 5% CO2 for 24 hr.
An olfactory receptor expressed in HEK293 cells couples with endogenous Gas in the cells to activate adenylate cyclase and thereby increases the amount of intracellular cAMP. In this study, the response of a pyrazine derivative was measured by luciferase reporter gene assay which monitors an increase in the amount of intracellular cAMP as the luminescence value derived from a firefly luciferase gene (fluc2P-CRE-hygro). A Renilla luciferase gene was fused downstream of a CMV promoter (hRluc-CMV) and was also introduced to HEK293 cells as an internal standard to correct errors in transgenic efficiency and number of cells.
The culture medium was removed from the culture produced in the above 3), and 75 μL of a solution prepared with a CD293 medium (Invitrogen Inc.) so as to contain a pyrazine derivative (1 mM 2,6-dimethylpyrazine) was added thereto. The cells were cultured in a CO2 incubator for 2.5 hr to sufficiently express the luciferase gene in the cells. The luciferase activity was measured with a Dual-Glo™ luciferase assay system (Promega Corporation) in accordance with the operating manual of the system. The fold increases were calculated by dividing the luminescence value derived from firefly luciferase induced by stimulation with a pyrazine derivative at each concentration by the luminescence value in cells not stimulated with the pyrazine derivative and were used as an index of response strength.
Olfactory receptor OR5K1 (SEQ ID NO: 2) was expressed in HEK293 cells together with an RTP1S variant (SEQ ID NO: 4) by the same procedure as in Example 1, and the dependency of the response on the concentration (0, 3, 10, 30, 100, 300, and 1000 μM) of various pyrazine compounds was investigated. The pyrazine compounds used in this Example were pyrazine and pyrazine derivatives selected from the group consisting of 2-methylpyrazine, 2,3-dimethylpyrazine, 2,5-dimethylpyrazine, 2,3,5-trimethylpyrazine, 2,3,5,6-tetramethylpyrazine and 2-ethylpyrazine.

| Compound | response of OR5K1, dependency on concentration |
| --- | --- |
| CCc1cnccn1 [2-ethylpyrazine] | responded in a dose-dependent manner |
| Cc1cnc(C)c(C)n1 [2,3,5-trimethylpyrazine] | responded in a dose-dependent manner |
| Cc1cnccn1 [2-methylpyrazine] | responded in a dose-dependent manner |
| Cc1nc(C)c(C)nc1C [2,3,5,6-tetramethylpyrazine] | responded in a dose-dependent manner |

tested on: not listed separately; assay: Sensory test of reduction of the odor of 2,6-dimethylpyrazine in dough; settings: flavoring agent 0.5 μL added to dough 0.5 g containing 1% 2,6-dimethylpyrazine; four panelists; rating 1 to 5; FIG. 3
Description: A flavoring agent (0.5 μL) was added to dough (0.5 g) containing 2,6-dimethylpyrazine (1%, and the odor thereof was evaluated by comparing the strength of odor of 2,6-dimethylpyrazine in dough not applied with flavor by the flavoring agent. The sensory evaluation test was performed by four panelists. In the evaluation, a case where a strong odor of 2,6-dimethylpyrazine was smelled was rated as 1, and a case where the odor of 2,6-dimethylpyrazine was not smelled at all was rated as 5.

| Compound | odor of 2,6-dimethylpyrazine in sensory test |
| --- | --- |
| CC(=O)/C(C)=C/C1C(C)=CCCC1(C)C (stereo not drawn) [α-isomethyl ionone] | inhibited |
| CC1=CC(C)C(C=O)CC1 (centres unmarked) [triplal, 2,4-dimethyl-3-cyclohexene-1-carboxyaldehyde] | inhibited |
| CC1C/C=C/CCCCCCCCCC(=O)C1 (centres unmarked) [δ-muscenone, (5E)-3-methylcyclopenta-5-decen-1-one] | inhibited |
| CCC(O)COC1CCCCC1C(C)(C)C (centres unmarked) [Amber Core, 1-(2-tert-butylcyclohexyloxy)-2-butanol] | inhibited |
| C=CCCC(=O)C1=CCCC(C)(C)C1 [Dynascone, 1-(5,5-dimethyl-1-cyclohexen-1-yl)-4-penten-1-one] | inhibited |
| CC(C=O)Cc1ccc(C(C)(C)C)cc1 (stereo not drawn) [lilial, α-methyl-β-(p-tert-butylphenyl)-propionaldehyde] | inhibited |
| CC(C=O)Cc1ccc2c(c1)OCO2 (stereo not drawn) [helional, α-methyl-3,4-methylenedioxyhydrocinnamic aldehyde] | inhibited |
| ethyl-(3aα,4α,7α,3aα)-octahydro-4,7-methano-3aH-indene-3a-carboxylate [Fruitate] | inhibited |
| CCCCCCCC1CCC(=O)O1 (centres unmarked) [γ-undecalactone] | inhibited |
| CC=CC(=O)C1=C(C)C=CCC1(C)C [damascenone, 1-(2,6,6-trimethyl-1,3-cyclohexadien-1-yl)-2-buten-1-one] | inhibited |
| CCC=C(C)C(O)CCCCC (centres unmarked) [undecavertol, 4-methyl-3-decen-5-ol] | inhibited |
| CC(=CCC1CC=C(C)C1(C)C)CO (centres unmarked) [Sandalmysore Core, 2-methyl-4-(2,2,3-trimethyl-3-cyclopenten-1-yl)-2-buten-1-ol] | inhibited |
| CC(=O)C=CC1=C(C)CCCC1(C)C [β-ionone, 4-(2,6,6-trimethyl-1-cyclohexen-1-yl)-3-buten-2-one] | inhibited |
| CCCCCCC(C=O)=Cc1ccccc1 [α-hexylcinnamic aldehyde] | inhibited |
| CC(=O)c1ccc2ccccc2c1 [β-methyl naphthyl ketone] | inhibited |

molecular target: T1, olfactory receptor OR5K1; assay: Antagonist assay: inhibition of OR5K1 response to 2,6-dimethylpyrazine (luciferase reporter); assay type: cell-based; settings: HEK293 cells expressing OR5K1; 2,6-dimethylpyrazine 1 mM + test substance 300 μM (cytotoxic flavoring agents re-evaluated at 333 μM + 100 μM); read-out: Inhibition rate (receptor response-inhibiting rate)
Description: The receptor response-inhibiting rate of a test substance was calculated as follows. The receptor activity (X−Y) by stimulation with 2,6-dimethylpyrazine alone was determined by subtracting the luminescence value (Y) in cells to which the receptor was introduced but were not stimulated with 2,6-dimethylpyrazine from the luminescence value (X) derived from firefly luciferase induced by stimulation with 2,6-dimethylpyrazine alone. Similarly, the receptor activity (Z−Y) in the presence of a test substance was determined by subtracting the luminescence value (Y) in cells not stimulated with 2,6-dimethylpyrazine from the luminescence value (Z) stimulated with a mixture of 2,6-dimethylpyrazine and the test substance. The reduction rate of the receptor activity (Z−Y) in the presence of a test substance to the receptor activity (X−Y) by stimulation with 2,6-dimethylpyrazine alone was calculated by the following computation expression: Inhibition rate (%)={1−(Z−Y)/(X−Y)}×100, to determine the receptor response-inhibiting rate of the test substance. In the measurement, multiple independent experiments were performed in duplicate, and the average of each experiment was used.

| Compound | inhibition at 300 µM |
| --- | --- |
| O=CC=Cc1ccccc1 [cinnamaldehyde] | ≥ 50% |
| CC(=O)O[C@]1(C)CC[C@@]23C[C@@H]1C(C)(C)[C@@H]2CC[C@H]3C [cedryl acetate] | ≥ 50% |
| CCCCCC1=C(C)CCC1=O [dihydrojasmon, 2-pentyl-3-methyl-2-cyclopenten-1-one] | ≥ 40% |
| CC(C)=CCCC(C)=CC=O [citral, 3,7-dimethyl-2,6-octadienal] | ≥ 75% |
| CCC(O)COC1CCCCC1C(C)(C)C (centres unmarked) [Amber Core, 1-(2-tert-butylcyclohexyloxy)-2-butanol] | ≥ 75% |
| C=CCCC(=O)C1=CCCC(C)(C)C1 [Dynascone, 1-(5,5-dimethyl-1-cyclohexen-1-yl)-4-penten-1-one] | ≥ 40% |
| CC(C)[C@H]1CC[C@@H](CO)CC1 [mayol, cis-4-isopropyl-cyclohexylmethanol] | ≥ 40% |
| CC(C=O)Cc1ccc(C(C)(C)C)cc1 (stereo not drawn) [lilial, α-methyl-β-(p-tert-butylphenyl)-propionaldehyde] | ≥ 50% |
| CC(C=O)c1ccccc1 (centres unmarked) [hydratropic aldehyde, 2-phenyl-propionaldehyde] | ≥ 50% |
| O=C1CCCCCCCCCCCC(=O)OCCO1 [ethylene brassylate, 1,4-dioxacyclo-heptadecane-5,17-dione] | ≥ 40% |
| CC1(C)CCCC2(C)C1CCC1(C)OCCC12 (centres unmarked) [Ambrotech, dodecahydro-3a,6,6,9a-tetramethyl-naphtho[2,1-b]furan] | ≥ 50% |
| CC(=O)C1=C(C)C2CC3(C1)C(C)CCC3C2(C)C (centres unmarked) [acetyl cedrene, 1-(2,3,4,7,8,8a-hexahydro-3,6,8,8-tetramethyl-1H-3a,7-methanoazulen-5-yl)-ethanone] | ≥ 50% |
| CC(C)=CCCC(C)CCOCC=O (centres unmarked) [citronellyloxyacetaldehyde, 6,10-dimethyl-3-oxa-9-undecenal] | ≥ 40% |
| O=C(OCCc1ccccc1)c1ccccc1O [phenylethyl salicylate] | ≥ 75% |
| CC(C)=CCC/C(C)=C/CO [geraniol, (E)-3,7-dimethyl-2,6-octadien-1-ol] | ≥ 40% |
| CC(=O)c1cc(C(C)(C)C)cc2c1C=CC2(C)C [celestolide, 6-tert-butyl-1,1-dimethylinden-4-yl methyl ketone] | ≥ 40% |

| Compound | inhibition at 300 µM |
| --- | --- |
| CC(=O)c1cc2c(cc1C)C(C)(C)C(C)CC2(C)C (centres unmarked) [Tonalid, 1-(5,6,7,8-tetrahydro-3,5,5,6,8,8-hexamethyl-2-naphthalenyl)-ethanone] | ≥ 75% |
| CC(C)CCCC(C)CCO (centres unmarked) [tetrahydrogeraniol, 3,7-dimethyl-1-octanol] | ≥ 50% |
| CC=CC(=O)C1=C(C)C=CCC1(C)C [damascenone, 1-(2,6,6-trimethyl-1,3-cyclohexadien-1-yl)-2-buten-1-one] | ≥ 40% |
| CCC(=CCC1CC=C(C)C1(C)C)CO (centres unmarked) [bacdanol, 2-ethyl-4-(2,2,3-trimethyl-3-cyclopenten-1-yl)-2-buten-1-ol] | ≥ 75% |
| CC=Cc1ccc(OCc2ccccc2)c(OC)c1 [benzyl isoeugenol, 2-methoxy-1-(phenylmethoxy)-4-(1-propenyl)-benzene] | ≥ 50% |
| C=CCc1ccc(O)c(OC)c1 [eugenol, 1-allyl-3-methoxy-4-hydroxybenzene] | ≥ 40% |
| CCCCCCOC(=O)c1ccccc1O [hexyl salicylate] | ≥ 40% |
| Cc1ccc(C(C)C)c(O)c1 [thymol, 5-methyl-2-(1-methylethyl)-phenol] | ≥ 75% |
| CC(C=O)C1CCCCC1 (centres unmarked) [Pollenal II, 2-cyclohexylpropanal] | ≥ 50% |
| CC(=O)C1(C)CC2=C(CCCC2(C)C)CC1C (centres unmarked) [Iso E Super, 7-acetyl-1,2,3,4,5,6,7,8-octahydro-1,1,6,7-tetramethyl-naphthalene] | ≥ 75% |
| CCC=C(C)C(O)CCCCC (centres unmarked) [undecavertol, 4-methyl-3-decen-5-ol] | ≥ 75% |
| CC(=O)c1c(C)c([N+](=O)[O-])c(C(C)(C)C)c([N+](=O)[O-])c1C [musk ketone, 4-tert-butyl-2,6-dimethyl-3,5-dinitro-acetophenone] | ≥ 40% |
| CC(=CCC1CC=C(C)C1(C)C)CO (centres unmarked) [Sandalmysore Core, 2-methyl-4-(2,2,3-trimethyl-3-cyclopenten-1-yl)-2-buten-1-ol] | ≥ 50% |
| C=C(OCC)C1C(C)(C)CC(=O)CC1(C)C [kephalis, 4-(1-ethoxyvinyl)-3,3,5,5-tetramethyl cyclohexanone] | ≥ 50% |
| CC(C)=CCCC(C)CC=O (centres unmarked) [citronellal, 3,7-dimethyl-6-octenal] | ≥ 50% |
